Results from patent US10787442B2, “Modulators of indoleamine 2,3-dioxygenase” (GLAXOSMITHKLINE INTELLECTUAL PROPERTY DEVELOPMENT LIMITED, priority 2016, dated 2020).

target: indoleamine 2, 3-dioxygenase (IDO1) (Homo sapiens, UniProt P14902); assay: IDO1 HeLa RapidFire MS Assay (kynurenine by mass spectrometry); assay type: cell-based; details: HeLa cells stimulated with IFN-γ, 2 days; recorded as pIC50; read-out: IDO1 HeLa PXC50 (converted)
Experimental: IDO1 HeLa RapidFire MS Assay
(§1) Compounds of the present invention were tested via high-throughput cellular assays utilizing detection of kynurenine via mass spectrometry and cytotoxicity as end-points. […] Compounds with IDO1 inhibitory properties decreased the amount of kynurenine produced by the cells via the tryptophan catabolic pathway. Cellular toxicity due to the effect of compound treatment was measured using CellTiter-Glo® reagent (CTG) (Promega Corporation, Madison, Wis.), which is based on luminescent detection of ATP, an indicator of metabolically active cells.
(§2) In preparation for the assays, test compounds were serially diluted 3-fold in DMSO from a typical top concentration of 1 mM or 5 mM and plated at 0.5 μL in 384-well, polystyrene, clear bottom, tissue culture treated plates with lids (Greiner Bio-One, Kremsmünster, Austria) to generate 11-point dose response curves. Low control wells (0% kynurenine or 100% cytotoxicity) contained either 0.5 μL of DMSO in the presence of unstimulated (−IFN-γ) HeLa cells for the mass spectrometry assay or 0.5 μL of DMSO in the absence of cells for the cytotoxicity assay, and high control wells (100% kynurenine or 0% cytotoxicity) contained 0.5 μL of DMSO in the presence of stimulated (+IFN-γ) HeLa cells for both the mass spectrometry and cytotoxicity assays.
Frozen stocks of HeLa cells were washed and recovered in DMEM high glucose medium with HEPES (Thermo Fisher Scientific, Inc., Waltham, Mass.) supplemented with 10% v/v certified fetal bovine serum (FBS) (Thermo Fisher Scientific, Inc., Waltham, Mass.), and 1× penicillin-streptomycin antibiotic solution (Thermo Fisher Scientific, Inc., Waltham, Mass.). The cells were diluted to 100,000 cells/mL in the supplemented DMEM medium. 50 μL of either the cell suspension, for the mass spectrometry assay, or medium alone, for the cytotoxicity assay, were added to the low control wells, on the previously prepared 384-well compound plates, resulting in 5,000 cells/well or 0 cells/well respectively. IFN-γ was added to the remaining cell suspension at a final concentration of 10 nM, and 50 μL of the stimulated cells were added to all remaining wells on the 384-well compound plates. The plates, with lids, were then placed in a 37° C., 5% CO2 humidified incubator for 2 days.
(§3) Following incubation, the 384-well plates were removed from the incubator and allowed to equilibrate to room temperature for 30 minutes. For the cytotoxicity assay, CellTiter-Glo® was prepared according to the manufacturer's instructions, and 10 μL were added to each plate well. After a twenty minute incubation at room temperature, luminescence was read on an EnVision® Multilabel Reader (PerkinElmer Inc., Waltham, Mass.). For the mass spectrometry assay, 10 μL of supernatant from each well of the compound-treated plates were added to 40 μL of acetonitrile, containing 10 μM of an internal standard for normalization, in 384-well, polypropylene, V-bottom plates (Greiner Bio-One, Kremsmünster, Austria) to extract the organic analytes. Following centrifugation at 2000 rpm for 10 minutes, 10 μL from each well of the acetonitrile extraction plates were added to 90 μL of sterile, distilled H2O in 384-well, polypropylene, V-bottom plates for analysis of kynurenine and the internal standard on the RapidFire 300 (Agilent Technologies, Santa Clara, Calif.) and 4000 QTRAP MS (SCIEX, Framingham, Mass.). MS data were integrated using Agilent Technologies' RapidFire Integrator software, and data were normalized for analysis as a ratio of kynurenine to the internal standard.

Chain of indoleamine 2, 3-dioxygenase (IDO1) (P14902 whole entry): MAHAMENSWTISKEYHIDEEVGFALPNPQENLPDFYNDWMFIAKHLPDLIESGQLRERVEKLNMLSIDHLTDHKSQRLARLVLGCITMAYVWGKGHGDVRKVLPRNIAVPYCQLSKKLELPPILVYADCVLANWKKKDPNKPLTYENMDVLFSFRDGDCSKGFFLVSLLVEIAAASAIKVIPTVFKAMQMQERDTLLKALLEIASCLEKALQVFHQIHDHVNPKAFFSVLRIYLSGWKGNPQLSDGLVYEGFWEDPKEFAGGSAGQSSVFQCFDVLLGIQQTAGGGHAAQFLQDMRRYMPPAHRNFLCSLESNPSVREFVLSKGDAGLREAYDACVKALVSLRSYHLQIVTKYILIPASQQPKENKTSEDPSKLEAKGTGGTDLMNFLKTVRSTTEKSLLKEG

Question: For `CC(C)CN(c1ncc(C(C)CC(=O)O)cc1Nc1nnc(C2CC2)s1)C1CCOCC1` (stereo not shown) [Example 36, 3-{5-[(5-cyclopropyl-1,3,4-thiadiazol-2-yl)amino]-6-[(2-methylpropyl)(oxan-4-yl)amino]pyridin-3-yl}butanoic acid], which IC50 is on record?
Answer: The IC50 was 7.94 nM.

test system: human peripheral blood mononuclear cells (PBMC); assay: PBMC cytotoxicity assay (CellTiter-Glo); assay type: cell-based; details: cytotoxicity in stimulated PBMC, recorded as pCC50
Experimental: as §1
as §2, with “(−IFN-γ/−LPS) PBMCs” for “(−IFN-γ) HeLa cells”, “(+IFN-γ/+LPS) PBMCs” for “(+IFN-γ) HeLa cells”
Frozen stocks of PBMCs were washed and recovered in RPMI 1640 medium (Thermo Fisher Scientific, Inc., Waltham, Mass.) supplemented with 10% v/v heat-inactivated fetal bovine serum (FBS) (Thermo Fisher Scientific, Inc., Waltham, Mass.), and 1× penicillin-streptomycin antibiotic solution (Thermo Fisher Scientific, Inc., Waltham, Mass.). The cells were diluted to 1,000,000 cells/mL in the supplemented RPMI 1640 medium. 50 μL of either the cell suspension, for the mass spectrometry assay, or medium alone, for the cytotoxicity assay, were added to the low control wells, on the previously prepared 384-well compound plates, resulting in 50,000 cells/well or 0 cells/well respectively. IFN-γ and LPS were added to the remaining cell suspension at final concentrations of 100 ng/ml and 50 ng/ml respectively, and 50 μL of the stimulated cells were added to all remaining wells on the 384-well compound plates. The plates, with lids, were then placed in a 37° C., 5% CO2 humidified incubator for 2 days.
as §3, with “and 40” for “and 10”

Question: Which “PBMC_TOX PXC50” value does the source give for `CC(C)CN(c1ncc(C(C)CC(=O)O)cc1Nc1nnc(C2CC2)s1)C1CCOCC1` (stereo not shown) [Example 36, 3-{5-[(5-cyclopropyl-1,3,4-thiadiazol-2-yl)amino]-6-[(2-methylpropyl)(oxan-4-yl)amino]pyridin-3-yl}butanoic acid] here?
Answer: The value was under 5.0.

Question: With `CC(C)CN(c1ncc([C@H](C)CC(=O)O)cc1Nc1ccc(C(F)(F)F)nn1)C1CCOCC1` [Example 66, (3R)-3-{6-[(2-methylpropyl)(oxan-4-yl)amino]-5-{[6-(trifluoromethyl)pyridazin-3-yl]amino}pyridin-3-yl}butanoic acid] as the compound, how does the “PBMC_TOX PXC50” value read?
Answer: The value was under 5.0.

Question: `CC(C)CN(c1ncc([C@H](C)CC(=O)O)cc1Nc1cnc(C#N)cn1)C1CCOCC1` [Example 67, (3R)-3-{5-[(5-cyanopyrazin-2-yl)amino]-6-[(2-methylpropyl)(oxan-4-yl)amino]pyridin-3-yl}butanoic acid] was tested. Which “PBMC_TOX PXC50” value did it give?
Answer: The value was under 5.0.

Question: Which “PBMC_TOX PXC50” value does the source give for `CC(C)CN(c1ncc([C@H](C)CC(=O)O)cc1Nc1ccc(Cl)c(Cl)n1)C1CCOCC1` [Example 68, (3R)-3-{5-[(5,6-dichloropyridin-2-yl)amino]-6-[(2-methylpropyl)(oxan-4-yl)amino]pyridin-3-yl}butanoic acid] here?
Answer: Its value is under 5.0.

Question: How did the “PBMC_TOX PXC50” value turn out when `Cc1nc(Nc2cc([C@H](C)CC(=O)O)cnc2N(CC(C)C)C2CCOCC2)ccc1Cl` [Example 69, (3R)-3-{5-[(5-chloro-6-methylpyridin-2-yl)amino]-6-[(2-methylpropyl)(oxan-4-yl)amino]pyridin-3-yl}butanoic acid] was run?
Answer: Its value is under 5.0.

Question: Which “PBMC_TOX PXC50” value does the source give for `CC(C)CN(c1ncc([C@H](C)CC(=O)O)cc1Nc1ccc(Cl)c(C#N)n1)C1CCOCC1` [Example 70, (3R)-3-{5-[(5-chloro-6-cyanopyridin-2-yl)amino]-6-[(2-methylpropyl)(oxan-4-yl)amino]pyridin-3-yl}butanoic acid] here?
Answer: Its value is under 5.0.

Question: Which “PBMC_TOX PXC50” value does the source give for `CC(C)CN(CC(F)F)c1ncc([C@H](C)CC(=O)O)cc1Nc1ccc(Cl)cn1` [Example 71, (3R)-3-{5-[(5-chloropyridin-2-yl)amino]-6-[(2,2-difluoroethyl)(2-methylpropyl)amino]pyridin-3-yl}butanoic acid] here?
Answer: The value was under 5.0.

Question: With `CC(C)CN(CC(C)C)c1nnc(C(C)CC(=O)O)cc1Nc1nc(C(F)(F)F)ns1` (stereo not shown) [Example 72, 3-{6-[bis(2-methylpropyl)amino]-5-{[3-(trifluoromethyl)-1,2,4-thiadiazol-5-yl]amino}pyridazin-3-yl}butanoic acid] as the compound, how does the “PBMC_TOX PXC50” value read?
Answer: The value was under 5.0.

Question: With `CC(C)CN(c1ncc([C@H](C)CC(=O)O)cc1Nc1ccc(C(N)=O)nn1)C1CCOCC1` [Example 73, (3R)-3-{5-[(6-carbamoylpyridazin-3-yl)amino]-6-[(2-methylpropyl)(oxan-4-yl)amino]pyridin-3-yl}butanoic acid] as the compound, how does the “PBMC_TOX PXC50” value read?
Answer: Its value is under 5.0.

Question: How did the “PBMC_TOX PXC50” value turn out when `CC(C)CN(c1ncc([C@H](C)CC(=O)O)cc1Nc1ccc(C#N)nn1)C1CCOCC1` [Example 74, (3R)-3-{5-[(6-cyanopyridazin-3-yl)amino]-6-[(2-methylpropyl)(oxan-4-yl)amino]pyridin-3-yl}butanoic acid] was run?
Answer: Its value is under 5.0.

Question: Which “PBMC_TOX PXC50” value does the source give for `CC(C)CN(c1ncc([C@H](C)CC(=O)O)cc1Nc1ccc(Cl)cn1)C1CC(F)(F)C1` [Example 75, (3R)-3-{5-[(5-chloropyridin-2-yl)amino]-6-[(3,3-difluorocyclobutyl)(2-methylpropyl)amino]pyridin-3-yl}butanoic acid] here?
Answer: Its value is under 5.0.

Question: How did the “PBMC_TOX PXC50” value turn out when `CC(C)CN(CCC(F)(F)F)c1ncc([C@H](C)CC(=O)O)cc1Nc1ccc(Cl)cn1` [Example 76, (3R)-3-{5-[(5-chloropyridin-2-yl)amino]-6-[(2-methylpropyl)(3,3,3-trifluoropropyl)amino]pyridin-3-yl}butanoic acid] was run?
Answer: The value was under 5.0.

Question: How did the “PBMC_TOX PXC50” value turn out when `CC(C)CN(c1ncc([C@H](C)CC(=O)O)cc1Nc1cnc(Cl)cn1)C1CCOCC1` [Example 77, (3R)-3-{5-[(5-chloropyrazin-2-yl)amino]-6-[(2-methylpropyl)(oxan-4-yl)amino]pyridin-3-yl}butanoic acid] was run?
Answer: The value was under 5.0.

Question: How did the “PBMC_TOX PXC50” value turn out when `CC(C)CN(c1ncc([C@H](C)CC(=O)NO)cc1Nc1ccc(Cl)cn1)C1CCOCC1` [Example 78, (3R)-3-{5-[(5-chloropyridin-2-yl)amino]-6-[(2-methylpropyl)(oxan-4-yl)amino]pyridin-3-yl}-N-hydroxybutanamide] was run?
Answer: Its value is under 5.0.

Question: Which “PBMC_TOX PXC50” value does the source give for `CC(C)CN(c1ncc([C@H](C)CC(=O)NS(C)(=O)=O)cc1Nc1ccc(Cl)cn1)C1CCOCC1` [Example 79, (3R)-3-{5-[(5-chloropyridin-2-yl)amino]-6-[(2-methylpropyl)(oxan-4-yl)amino]pyridin-3-yl}-N-methanesulfonylbutanamide] here?
Answer: The value was under 5.0.

Question: For `CC(C)CN(c1ncc([C@H](C)CC(=O)NS(=O)(=O)N(C)C)cc1Nc1ccc(Cl)cn1)C1CCOCC1` [Example 80, (3R)-3-{5-[(5-chloropyridin-2-yl)amino]-6-[(2-methylpropyl)(oxan-4-yl)amino]pyridin-3-yl}-N-(dimethylsulfamoyl)butanamide], which “PBMC_TOX PXC50” value is on record?
Answer: The value was under 5.0.

Question: With `CC(C)CN(c1ncc([C@H](C)CC(=O)O)cc1Nc1nc(Cl)ns1)C1CC(F)(F)C1` [Example 81] as the compound, how does the “PBMC_TOX PXC50” value read?
Answer: Its value is under 5.0.

Question: Which “PBMC_TOX PXC50” value does the source give for `CC(C)CN(c1cnc([C@H](C)CC(=O)O)cc1Nc1ccc(Cl)cn1)C1CCOCC1` [Example 82, (3R)-3-{4-[(5-chloropyridin-2-yl)amino]-5-[(2-methylpropyl)(oxan-4-yl)amino]pyridin-2-yl}butanoic acid] here?
Answer: The value was under 5.0.
